# Like-named read-outs stand apart in the source and are kept apart here.
# Tests used:
# [1] = biological target: T1, CYP2C19 (Homo sapiens, UniProt P33261); assay: Cytochrome p450 inhibition (CEREP); type: in vitro ADME; conditions: 10 μM
# T1 construct: CEREP (contract laboratory)
# Method: (§1) JB6121 was also tested for CYP inhibition, see Table 6 below. Assays where performed by CEREP, Seattle, Wash., according to Atkinson, A et al., 2005, Drug Metab. Dispos. 33:1637-1647.
# [2] = biological target: T2, CYP2C9 (Homo sapiens, UniProt P11712); assay: Cytochrome p450 inhibition (CEREP); type: in vitro ADME; conditions: 10 μM
# T2 construct: CEREP (contract laboratory)
# T2 sequence (P11712 whole entry): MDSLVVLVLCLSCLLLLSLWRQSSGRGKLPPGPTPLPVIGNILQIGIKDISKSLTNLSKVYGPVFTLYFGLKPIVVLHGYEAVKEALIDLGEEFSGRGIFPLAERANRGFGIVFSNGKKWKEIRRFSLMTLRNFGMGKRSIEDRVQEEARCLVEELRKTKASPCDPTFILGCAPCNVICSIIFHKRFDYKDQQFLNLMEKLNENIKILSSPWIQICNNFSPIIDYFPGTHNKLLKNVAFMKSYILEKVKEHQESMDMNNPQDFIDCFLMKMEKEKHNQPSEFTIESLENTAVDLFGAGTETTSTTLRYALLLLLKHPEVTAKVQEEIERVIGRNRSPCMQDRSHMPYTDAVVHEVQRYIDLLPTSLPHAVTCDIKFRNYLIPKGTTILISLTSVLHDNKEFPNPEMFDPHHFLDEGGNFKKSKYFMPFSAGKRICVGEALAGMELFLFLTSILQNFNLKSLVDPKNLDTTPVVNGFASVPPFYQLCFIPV
# Method: as §1
# [3] = biological target: T3, CYP3A4 (Homo sapiens, UniProt P08684); assay: Cytochrome p450 inhibition (CEREP); type: in vitro ADME; conditions: 10 μM
# T3 construct: CEREP (contract laboratory)
# T3 sequence (P08684 whole entry): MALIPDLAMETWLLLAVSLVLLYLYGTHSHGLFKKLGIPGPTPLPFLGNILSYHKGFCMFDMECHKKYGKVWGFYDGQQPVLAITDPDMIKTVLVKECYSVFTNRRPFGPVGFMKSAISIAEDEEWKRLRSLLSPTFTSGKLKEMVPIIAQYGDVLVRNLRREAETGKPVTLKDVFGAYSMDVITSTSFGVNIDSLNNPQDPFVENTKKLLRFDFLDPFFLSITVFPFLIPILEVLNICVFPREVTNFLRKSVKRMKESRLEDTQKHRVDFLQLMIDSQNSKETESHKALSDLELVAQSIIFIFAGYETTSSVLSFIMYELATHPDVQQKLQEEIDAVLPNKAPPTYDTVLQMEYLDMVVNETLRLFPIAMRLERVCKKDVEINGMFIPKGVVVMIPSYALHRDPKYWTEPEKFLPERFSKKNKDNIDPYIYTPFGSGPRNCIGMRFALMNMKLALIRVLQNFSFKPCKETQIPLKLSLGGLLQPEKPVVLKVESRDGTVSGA
# Method: as §1
# [4] = biological target: T4, CYP2B6 (Homo sapiens, UniProt P20813); assay: Cytochrome p450 inhibition (CEREP); type: in vitro ADME; conditions: 10 μM
# T4 construct: CEREP (contract laboratory)
# T4 sequence (P20813 whole entry): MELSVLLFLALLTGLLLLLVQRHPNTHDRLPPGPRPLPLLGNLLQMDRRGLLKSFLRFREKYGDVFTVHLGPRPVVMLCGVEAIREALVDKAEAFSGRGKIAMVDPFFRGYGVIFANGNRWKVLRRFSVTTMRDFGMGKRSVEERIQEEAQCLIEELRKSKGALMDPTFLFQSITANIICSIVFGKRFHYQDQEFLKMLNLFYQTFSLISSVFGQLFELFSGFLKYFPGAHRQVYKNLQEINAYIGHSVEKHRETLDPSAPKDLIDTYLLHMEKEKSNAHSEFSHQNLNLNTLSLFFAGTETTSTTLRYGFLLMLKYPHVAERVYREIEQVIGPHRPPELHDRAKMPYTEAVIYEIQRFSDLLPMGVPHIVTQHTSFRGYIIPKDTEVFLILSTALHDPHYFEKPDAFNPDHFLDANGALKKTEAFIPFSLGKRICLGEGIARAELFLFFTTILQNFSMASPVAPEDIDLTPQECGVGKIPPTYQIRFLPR
# Method: as §1
# [5] = biological target: T5, CYP1A2 (Homo sapiens, UniProt P05177); assay: Cytochrome p450 inhibition (CEREP); type: in vitro ADME; conditions: 10 μM
# T5 construct: CEREP (contract laboratory)
# T5 sequence (P05177 whole entry): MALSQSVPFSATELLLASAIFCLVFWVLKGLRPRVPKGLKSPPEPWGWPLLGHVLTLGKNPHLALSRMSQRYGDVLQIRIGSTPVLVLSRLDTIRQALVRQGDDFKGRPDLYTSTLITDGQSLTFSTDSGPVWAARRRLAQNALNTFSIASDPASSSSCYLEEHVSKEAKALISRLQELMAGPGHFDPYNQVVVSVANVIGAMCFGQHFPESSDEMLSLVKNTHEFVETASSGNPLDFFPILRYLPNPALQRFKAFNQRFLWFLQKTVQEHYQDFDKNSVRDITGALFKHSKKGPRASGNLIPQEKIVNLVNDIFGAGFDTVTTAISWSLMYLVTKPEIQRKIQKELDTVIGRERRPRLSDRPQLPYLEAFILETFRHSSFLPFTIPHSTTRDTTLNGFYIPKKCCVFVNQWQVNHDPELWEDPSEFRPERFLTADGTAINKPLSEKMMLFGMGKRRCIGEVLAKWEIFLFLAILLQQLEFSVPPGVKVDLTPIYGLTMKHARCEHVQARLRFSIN
# Method: as §1
# [6] = biological target: T6, CYP2C8 (Homo sapiens, UniProt P10632); assay: Cytochrome p450 inhibition (CEREP); type: in vitro ADME; conditions: 10 μM
# T6 construct: CEREP (contract laboratory)
# T6 sequence (P10632 whole entry): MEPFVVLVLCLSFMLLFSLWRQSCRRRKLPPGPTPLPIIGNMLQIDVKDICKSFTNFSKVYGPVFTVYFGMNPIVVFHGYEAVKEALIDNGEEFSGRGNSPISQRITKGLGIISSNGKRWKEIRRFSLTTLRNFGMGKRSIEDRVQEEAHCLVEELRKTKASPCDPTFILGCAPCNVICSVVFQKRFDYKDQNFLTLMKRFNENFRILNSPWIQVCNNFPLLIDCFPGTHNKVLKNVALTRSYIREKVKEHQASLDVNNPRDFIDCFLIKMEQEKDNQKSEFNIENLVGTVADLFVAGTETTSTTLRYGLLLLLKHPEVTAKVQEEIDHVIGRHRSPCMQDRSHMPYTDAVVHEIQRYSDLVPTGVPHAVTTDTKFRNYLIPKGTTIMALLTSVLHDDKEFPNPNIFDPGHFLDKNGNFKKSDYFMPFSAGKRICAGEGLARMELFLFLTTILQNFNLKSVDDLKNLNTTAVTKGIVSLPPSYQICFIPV
# Method: as §1
# [7] = biological target: T7, CYP2D6 (Homo sapiens, UniProt P10635); assay: Cytochrome p450 inhibition (CEREP); type: in vitro ADME; conditions: 10 μM
# T7 construct: CEREP (contract laboratory)
# T7 sequence (P10635 whole entry): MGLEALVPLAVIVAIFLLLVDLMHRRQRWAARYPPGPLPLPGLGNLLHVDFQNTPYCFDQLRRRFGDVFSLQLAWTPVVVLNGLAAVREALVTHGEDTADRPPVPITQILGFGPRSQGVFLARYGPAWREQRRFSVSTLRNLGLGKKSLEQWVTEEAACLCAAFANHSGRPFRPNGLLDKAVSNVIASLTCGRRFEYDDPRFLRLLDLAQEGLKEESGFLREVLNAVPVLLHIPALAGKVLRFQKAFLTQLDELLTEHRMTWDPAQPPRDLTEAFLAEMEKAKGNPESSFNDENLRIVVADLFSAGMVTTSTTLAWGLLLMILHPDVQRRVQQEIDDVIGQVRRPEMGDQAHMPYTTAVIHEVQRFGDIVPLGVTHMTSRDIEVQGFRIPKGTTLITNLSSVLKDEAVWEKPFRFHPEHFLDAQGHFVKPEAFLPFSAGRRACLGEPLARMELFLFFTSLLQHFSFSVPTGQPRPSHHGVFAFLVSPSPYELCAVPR
# Method: as §1
# [8] = 7-day non-GLP tox study, once daily oral gavage; type: in vivo, rats; conditions: for no-observed-effect level (NOEL): rats, 7 days oral
# Method: A 7-day non-GLP tox study was performed in rats. Dosing was once daily by oral gavage. There were four dose groups; 0, 10, 30 and 100 mg/kg. The following parameters and end points were evaluated in this study: clinical signs, body weights, body weight changes, food consumption, clinical pathology parameters (hematology, coagulation, clinical chemistry, and urinalysis), toxicokinetic parameters, gross necropsy findings, organ weights, and histopathologic examinations.
# [9] = Aqueous solubility (CEREP); type: physicochemical
# Method: Preliminary screening measures were conducted by CEREP. All values fall within acceptable limits (Table 5). Solubility assays where performed by CEREP, Seattle, Wash., according to Lipinski, C. A. et al., 1997, Adv. Drug Del. Rev., 46:3-26. Protein binding assays where performed by CEREP, Seattle, Wash., according to Banker, M. J. et al., 2003, J. Pharm. Sci., 92:967-974. Permeability assays where performed by CEREP, Seattle, Wash. according to Hildalgo, I. J., 1998, Gastroenterology, 96:736-749. Metabolic stability assays where performed by CEREP, Seattle, Wash., according to Obach, R. S. et al., 1997, J. Pharmacol. Exp. Ther., 283:46-58. P-glycoprotein inhibition assays where performed by CEREP, Seattle, Wash., according to Polli, J. W. et al., 2001, J. Pharm. Exp. Ther., 299:620-628. Cell viability assays where performed by CEREP, Seattle, Wash., according to Mosmann, T., 1983, J. Immunol. Met. 65:55-62. hERG automated patch clamp assays where performed by CEREP, Seattle, Wash., according to Mathes, C., 2006, Expert Opin. Ther. Targets, 10:230-241.
# [10] = Pharmacokinetic study in rats, IV and PO, whole blood (Charles River); type: in vivo, Sprague-Dawley rats
# Method: A pharmacokinetic study was performed by Charles River Wilmington Mass., in rats and the doses where 2 mg/kg IV and 10 mg/kg PO and whole blood levels were measured for 72 h. The calculated pharmacokinetic parameters for 24 h are given below in Table 8.
# Six (6) male Sprague-Dawley rats were selected from the Testing Facility's rodent colony. The animals were enrolled in the study based on acceptable health as determined by a Testing Facility veterinarian and based on patency of femoral and jugular vein catheters. Fasting was performed for at least 16 hours prior to dosing. Food was also withheld until after the 4 hour time point collection. The animals were placed into 2 groups of 3 animals per group. Each animal in Group 1 received prepared JB6121 by intravenous dose administration at a target dose level of 2 mg/kg and at a dose volume of 1 mL/kg. Immediately following intravenous dosing, the inter-dwelling catheter was flushed with 0.5 mL of saline. Each animal in Group 2 received prepared JB6121 by oral gavage dose administration at a target dose level of 10 mg/kg and at a dose volume of 10 mL/kg.
# Whole blood samples (0.300 mL; K2EDTA anticoagulant) were collected from each animal through a jugular vein catheter. Whole blood samples were collected from all animals at 30 minutes and at 1, 2, 4, 6, 12, 24, 48, and 72 hours after dose administration.
# Whole blood samples were transferred to the Charle River Bioanalytical Sciences Laboratory, Wilmington Mass., for analysis. Pharmacokinetic parameters were estimated using Watson pharmacokinetic software (Version No. 7.2) using a non-compartmental approach consistent with the IV or PO route of administration.
# [11] = male, Sprague-Dawley, whole blood, Rat, PO 10.0 mg/kg
# T1 sequence (P33261 whole entry): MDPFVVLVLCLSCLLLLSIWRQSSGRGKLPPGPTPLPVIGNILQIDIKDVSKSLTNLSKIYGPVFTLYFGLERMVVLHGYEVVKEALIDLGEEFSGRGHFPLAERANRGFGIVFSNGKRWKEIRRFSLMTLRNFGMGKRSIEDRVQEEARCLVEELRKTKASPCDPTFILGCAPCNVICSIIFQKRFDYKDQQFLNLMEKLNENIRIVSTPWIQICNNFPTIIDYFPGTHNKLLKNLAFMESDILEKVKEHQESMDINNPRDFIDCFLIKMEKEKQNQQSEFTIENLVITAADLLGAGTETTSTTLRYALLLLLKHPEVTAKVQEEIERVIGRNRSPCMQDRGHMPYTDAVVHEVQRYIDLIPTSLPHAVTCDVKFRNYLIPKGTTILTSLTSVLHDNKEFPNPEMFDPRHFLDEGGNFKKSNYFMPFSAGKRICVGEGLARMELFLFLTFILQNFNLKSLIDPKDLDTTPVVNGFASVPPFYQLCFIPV
compound,measurement,setting,value
"CN1CCN(c2nc(NCCN3CCOCC3)c3nc(Cl)c(NCCN4CCOCC4)nc3n2)CC1 [JB6121, 6-chloro-2-(4-methylpiperazin-1-yl)-N^4,N^7-bis(2-morpholinoethyl)pteridine-4,7-diamine]",CYP2C19 Mean % Control,[1],92.9%
same,CYP2C9 Mean % Control,[2],46.7%
same,"CYP3A4, BFC substrate Mean % Control",[3]; BFC substrate,94.1%
same,"CYP3A4, BzRes substrate Mean % Control",[3]; BzRes substrate,104.8%
same,CYP2B6 Mean % Control,[4],58.2%
same,CYP1A2 Mean % Control,[5],97.0%
same,CYP2C8 Mean % Control,[6],87.7%
same,CYP2D6 Mean % Control,[7],80.9%
same,NOAEL at 7 days,"[8]; both sexes, rat, in vivo, po",100 mg/kg/day
same,hematopoiesis (spleen),"[8]; rat, in vivo, 30 mg/kg/day",increased incidence of hematopoiesis
same,increase of mean spleen weights,"[8]; rat, in vivo, 30 mg/kg/day",at least 10%
same,hematopoiesis in the liver,"[8]; rat, in vivo, 100 mg/kg/day",slight increase in hematopoiesis
same,no-observed-effect level (NOEL),[8]; females,100 mg/kg/day
same,no-observed-effect level (NOEL),[8]; males,10 mg/kg/day
same,solubility,"[9]; PBS, pH 7.4, aqueous buffer, read-out: Aqueous Solubility, PBS, pH 7.4",> 200 µM
same,solubility,"[9]; simulated gastric fluid, read-out: Aqueous Solubility, simulated Gastric Fluid",> 200 µM
same,solubility,"[9]; simulated intestinal fluid, fassgf or other biorelevant, read-out: Aqueous Solubility, simulated Intestinal Fluid",195 µM
same,AUC,"[10]; male, Sprague-Dawley, rat, whole blood, iv, 2 mg/kg, Rat, IV 2.0 mg/kg, read-out: AUC",2040 ng·h/mL
same,AUC,"[10]; male, Sprague-Dawley, rat, whole blood, iv, 2 mg/kg, Rat, IV 2.0 mg/kg, read-out: AUC Extrap",2230 ng·h/mL
same,bioavailability,"[10]; male, Sprague-Dawley, rat, whole blood, oral, 10 mg/kg, summary statement, read-out: in vivo bioavailability",> 20%
same,AUC,"[10]; male, Sprague-Dawley, rat, whole blood, po, 10 mg/kg, Rat, PO 10.0 mg/kg, read-out: AUC",2100 ng·h/mL
same,AUC,"[10]; male, Sprague-Dawley, rat, whole blood, po, 10 mg/kg, Rat, PO 10.0 mg/kg, read-out: AUC Extrap",2310 ng·h/mL
same,clearance,"[10]; male, Sprague-Dawley, whole blood, Rat, IV 2.0 mg/kg",16.4 mL/min/kg
same,Vd,"[10]; male, Sprague-Dawley, whole blood, Rat, IV 2.0 mg/kg, read-out: Vdss",21.6 L/kg
same,Cmax,[10]; [11],149 ng/mL
same,Tmax,[10]; [11],3.33 h
same,bioavailability,"[10]; male, Sprague-Dawley, whole blood, Rat, PO 10.0 mg/kg, read-out: Bioavailability",20.6%
same,half-life,"[10]; male, Sprague-Dawley, Rat, IV 2.0 mg/kg, whole blood, 24 h, read-out: T½ (converted)",9.71 h
same,clinically relevant abnormalities during dosing and sampling,"[10]; rats, 2 mg/kg IV and 10 mg/kg PO",no abnormalities were noted
